Test results published in ChEMBL document CHEMBL4321854, “Discovery of a First-in-Class Mitogen-Activated Protein Kinase Kinase 1/2 Degrader” (J Med Chem, 2019).
Calls of active or inactive are those of the source. The rule behind the calls is not given here.

What was measured:
[1] = target: T1, von Hippel-Lindau disease tumor suppressor/Dual specificity mitogen-activated protein kinase kinase 2/Dual specificity mitogen-activated protein kinase kinase 1 (Homo sapiens) (UniProt P36507+Q02750+P40337); assay: (§1) Protac activity against VHL/MEK1/2 in human HT-29 cells harboring with BRAF V600E variant assessed as phosphorylation of ERK at T202/Y204 residues at 0.3 uM pretreated with NEDD8-activating enzyme inhibitor, MLN4924 for 2 hrs followed by incubation with compound for 10 hrs by Western blot analysis; type: cell-based
[2] = test system: UACC-257; assay: Antiproliferative activity against human UACC257 cells assessed as reduction in cell growth after 3 days by MTT assay; type: functional
[3] = target: T2, von Hippel-Lindau disease tumor suppressor/Dual specificity mitogen-activated protein kinase kinase 2 (Homo sapiens) (UniProt P36507+P40337); assay: Protac activity against VHL/MEK2 in human HT-29 cells harboring with BRAF V600E variant assessed as degradation of MEK2 by measuring MEK2 protein level at 0.3 uM pretreated with MEK1/2 inhibitor, PD0325901 for 2 hrs followed by incubation with compound for 10 hrs by Western blot analysis; type: cell-based
[4] = target: T3, von Hippel-Lindau disease tumor suppressor/Dual specificity mitogen-activated protein kinase kinase 1 (Homo sapiens) (UniProt Q02750+P40337); assay: Protac activity against VHL/MEK1 in human SK-MEL-28 cells harboring with BRAF V600E variant assessed as degradation of MEK1 at 3 to 5 uM after 24 hrs by Western blot analysis; type: cell-based
[5] = target: T1, von Hippel-Lindau disease tumor suppressor/Dual specificity mitogen-activated protein kinase kinase 2/Dual specificity mitogen-activated protein kinase kinase 1 (Homo sapiens); assay: Protac activity against VHL/MEK1/2 in human SK-MEL-28 cells harboring with BRAF V600E variant assessed as reduction in phosphorylation of ERK at T202/Y204 residues after 24 hrs by Western blot analysis; type: cell-based
[6] = target: Dual specificity mitogen-activated protein kinase kinase 1 (Homo sapiens, UniProt Q02750); assay: Inhibition of recombinant full length human His-tagged MEK1 expressed in baculovirus expression system using ERK K52R dead variant as substrate preincubated for 20 mins followed by incubation with 33P-ATP addition for 2 hrs by hotspot kinase assay
[7] = target: T3, von Hippel-Lindau disease tumor suppressor/Dual specificity mitogen-activated protein kinase kinase 1 (Homo sapiens); assay: Protac activity against VHL/MEK1 in human SK-MEL-28 cells harboring with BRAF V600E variant assessed as degradation of MEK1 by measuring reduction in MEK1 protein level at 0.3 uM after 24 hrs by Western blot analysis relative to control; type: cell-based; parameters: scale not given: the % may be the effect or the level left
[8] = target: T3, von Hippel-Lindau disease tumor suppressor/Dual specificity mitogen-activated protein kinase kinase 1 (Homo sapiens); assay: Protac activity against VHL/MEK1 in human HT-29 cells harboring with BRAF V600E variant assessed as degradation of MEK1 by measuring MEK1 protein level at 0.3 uM pretreated with MEK1/2 inhibitor, PD0325901 for 2 hrs followed by incubation with compound for 10 hrs by Western blot analysis; type: cell-based
[9] = target: T1, von Hippel-Lindau disease tumor suppressor/Dual specificity mitogen-activated protein kinase kinase 2/Dual specificity mitogen-activated protein kinase kinase 1 (Homo sapiens); assay: Protac activity against VHL/MEK1/2 in human HT-29 cells harboring with BRAF V600E variant assessed as phosphorylation of MEK at S218/222 residues at 0.3 uM pretreated with NEDD8-activating enzyme inhibitor, MLN4924 for 2 hrs followed by incubation with compound for 10 hrs by Western blot analysis; type: cell-based
[10] = target: T1, von Hippel-Lindau disease tumor suppressor/Dual specificity mitogen-activated protein kinase kinase 2/Dual specificity mitogen-activated protein kinase kinase 1 (Homo sapiens); assay: Protac activity against VHL/MEK1/2 in human SK-MEL-28 cells harboring with BRAF V600E variant assessed as reduction in phosphorylation of MEK at S218/222 residues at 0.1 to 0.3 after >= 2 hrs by Western blot analysis; type: cell-based
[11] = target: T2, von Hippel-Lindau disease tumor suppressor/Dual specificity mitogen-activated protein kinase kinase 2 (Homo sapiens); assay: Protac activity against VHL/MEK2 in human HT-29 cells harboring with BRAF V600E variant assessed as degradation of MEK2 by measuring MEK2 protein level at 0.3 uM pretreated with proteasome inhibitor, MG-132 for 2 hrs followed by incubation with compound for 10 hrs by Western blot analysis; type: cell-based
[12] = target: T2, von Hippel-Lindau disease tumor suppressor/Dual specificity mitogen-activated protein kinase kinase 2 (Homo sapiens); assay: Protac activity against VHL/MEK2 in human SK-MEL-28 cells harboring with BRAF V600E variant assessed as degradation of MEK2 by measuring reduction in MEK2 protein level at 0.3 uM after 24 hrs by Western blot analysis relative to control; type: cell-based; parameters: scale not given: the % may be the effect or the level left
[13] = target: T1, von Hippel-Lindau disease tumor suppressor/Dual specificity mitogen-activated protein kinase kinase 2/Dual specificity mitogen-activated protein kinase kinase 1 (Homo sapiens); assay: as §1, with “SK-MEL-28” for “HT-29”; type: cell-based
[14] = target: T2, von Hippel-Lindau disease tumor suppressor/Dual specificity mitogen-activated protein kinase kinase 2 (Homo sapiens); assay: Protac activity against VHL/MEK2 in human HT-29 cells harboring BRAF V600E variant assessed as degradation of MEK2 by measuring reduction in MEK2 protein level at 0.5 uM after 24 hrs by Western blot analysis relative to control; type: cell-based; parameters: scale not given: the % may be the effect or the level left
[15] = target: von Hippel-Lindau disease tumor suppressor/Dual specificity mitogen-activated protein kinase kinase 2 (Homo sapiens, UniProt P36507+P40337, V600E); assay: (§2) Protac activity against VHL/MEK2 in human SK-MEL-28 cells harboring BRAF V600E variant assessed as degradation of MEK2 after 24 hrs by Western blot analysis; type: cell-based
[16] = target: T2, von Hippel-Lindau disease tumor suppressor/Dual specificity mitogen-activated protein kinase kinase 2 (Homo sapiens); assay: as §2; type: cell-based
[17] = target: T1, von Hippel-Lindau disease tumor suppressor/Dual specificity mitogen-activated protein kinase kinase 2/Dual specificity mitogen-activated protein kinase kinase 1 (Homo sapiens); assay: Protac activity against VHL/MEK1/2 in human COLO205 cells harboring with BRAF V600E variant assessed as reduction in phosphorylation of ERK at T202/Y204 residues after 24 hrs by Western blot analysis; type: cell-based
[18] = target: T3, von Hippel-Lindau disease tumor suppressor/Dual specificity mitogen-activated protein kinase kinase 1 (Homo sapiens); assay: Protac activity against VHL/MEK1 in human HT-29 cells harboring with BRAF V600E variant assessed as degradation of MEK1 by measuring reduction in MEK1 protein level at 0.5 uM after 24 hrs by Western blot analysis relative to control; type: cell-based; parameters: scale not given: the % may be the effect or the level left
[19] = target: Dual specificity mitogen-activated protein kinase kinase 2 (Homo sapiens, UniProt P36507); assay: Inhibition of recombinant full length human His-tagged MEK2 expressed in baculovirus expression system using ERK K52R dead variant as substrate preincubated for 20 mins followed by incubation with 33P-ATP for 2 hrs by hotspot kinase assay
[20] = Plasma concentration in Swiss albino mouse at 50 mg/kg, ip measured after 8 hrs by LC-MS/MS analysis; type: ADME, organism-based
[21] = Maximum drug concentration in Swiss albino mouse plasma at 50 mg/kg, ip measured after 0.5 hrs by LC-MS/MS analysis; type: ADME, organism-based; parameters: dose 50 mg/kg, route intraperitoneal
[22] = target: T2, von Hippel-Lindau disease tumor suppressor/Dual specificity mitogen-activated protein kinase kinase 2 (Homo sapiens); assay: Protac activity against VHL/MEK2 in human SK-MEL-28 cells harboring with BRAF V600E variant assessed as degradation of MEK2 at 3 to 5 uM after 24 hrs by Western blot analysis; type: cell-based
[23] = target: T1, von Hippel-Lindau disease tumor suppressor/Dual specificity mitogen-activated protein kinase kinase 2/Dual specificity mitogen-activated protein kinase kinase 1 (Homo sapiens); assay: Protac activity against VHL/MEK1/2 in human SK-MEL-28 cells harboring with BRAF V600E variant assessed as phosphorylation of ERK at T202/Y204 residues at 0.3 uM pretreated with proteasome inhibitor, MG-132 for 2 hrs followed by incubation with compound for 10 hrs by Western blot analysis; type: cell-based
[24] = test system: COLO 205; assay: Antiproliferative activity against human COLO205 cells assessed as reduction in cell growth after 3 days by WST8 assay; type: functional
[25] = target: T3, von Hippel-Lindau disease tumor suppressor/Dual specificity mitogen-activated protein kinase kinase 1 (Homo sapiens); assay: Protac activity against VHL/MEK1 in human HT-29 cells harboring with BRAF V600E variant assessed as degradation of MEK1 by measuring reduction in MEK1 protein level at 0.1 uM after 10 hrs by LC-MS based Volcano plot analysis; type: cell-based
[26] = target: T1, von Hippel-Lindau disease tumor suppressor/Dual specificity mitogen-activated protein kinase kinase 2/Dual specificity mitogen-activated protein kinase kinase 1 (Homo sapiens); assay: Protac activity against VHL/MEK1/2 in human HT-29 cells harboring with BRAF V600E variant assessed as reduction in phosphorylation of MEK at S218/222 residues after 24 hrs by Western blot analysis; type: cell-based

T3 sequence (P40337 whole entry, looked up): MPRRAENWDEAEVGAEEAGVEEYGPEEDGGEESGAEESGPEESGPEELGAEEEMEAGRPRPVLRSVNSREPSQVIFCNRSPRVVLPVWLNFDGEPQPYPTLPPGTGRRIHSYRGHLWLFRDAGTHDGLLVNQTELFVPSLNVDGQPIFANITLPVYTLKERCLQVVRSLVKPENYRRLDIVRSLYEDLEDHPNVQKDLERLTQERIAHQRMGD
T3 sequence (Q02750 whole entry, looked up): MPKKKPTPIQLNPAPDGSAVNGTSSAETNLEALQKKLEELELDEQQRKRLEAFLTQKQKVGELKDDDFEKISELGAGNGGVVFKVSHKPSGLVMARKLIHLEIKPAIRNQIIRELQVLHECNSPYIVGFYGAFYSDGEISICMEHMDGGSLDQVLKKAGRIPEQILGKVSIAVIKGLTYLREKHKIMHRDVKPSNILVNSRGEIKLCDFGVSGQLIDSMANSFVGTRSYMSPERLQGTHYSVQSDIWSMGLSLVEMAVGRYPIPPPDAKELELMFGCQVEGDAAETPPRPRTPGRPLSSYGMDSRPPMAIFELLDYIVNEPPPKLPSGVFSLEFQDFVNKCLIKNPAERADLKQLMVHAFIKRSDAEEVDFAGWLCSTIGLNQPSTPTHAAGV
T2 sequence (P36507 whole entry, looked up): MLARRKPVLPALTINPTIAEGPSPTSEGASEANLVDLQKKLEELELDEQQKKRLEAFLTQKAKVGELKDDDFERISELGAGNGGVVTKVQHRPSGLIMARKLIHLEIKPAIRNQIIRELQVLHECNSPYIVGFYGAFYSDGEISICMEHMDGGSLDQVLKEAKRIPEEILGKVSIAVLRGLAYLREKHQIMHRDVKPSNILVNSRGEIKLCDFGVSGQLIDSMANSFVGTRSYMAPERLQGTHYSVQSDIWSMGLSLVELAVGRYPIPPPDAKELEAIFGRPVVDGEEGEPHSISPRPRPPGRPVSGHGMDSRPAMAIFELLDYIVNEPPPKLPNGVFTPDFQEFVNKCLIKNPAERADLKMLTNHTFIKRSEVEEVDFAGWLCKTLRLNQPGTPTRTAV
T2 sequence (P40337 whole entry, looked up): as the sequence (P40337 whole entry, looked up) above
T1 sequence (P36507 whole entry, looked up): as the sequence (P36507 whole entry, looked up) above
T1 sequence (P40337 whole entry, looked up): as the sequence (P40337 whole entry, looked up) above
T1 sequence (Q02750 whole entry, looked up): as the sequence (Q02750 whole entry, looked up) above
Dual specificity mitogen-activated protein kinase kinase 1, sequence (Q02750 whole entry): as the sequence (Q02750 whole entry, looked up) above
Dual specificity mitogen-activated protein kinase kinase 2, sequence (P36507 whole entry): as the sequence (P36507 whole entry, looked up) above
von Hippel-Lindau disease tumor suppressor/Dual specificity mitogen-activated protein kinase kinase 2, sequence (P36507 whole entry, looked up, stated change not applied): as the sequence (P36507 whole entry, looked up) above
von Hippel-Lindau disease tumor suppressor/Dual specificity mitogen-activated protein kinase kinase 2, sequence (P40337 whole entry, looked up, stated change not applied): as the sequence (P40337 whole entry, looked up) above

For `Cc1ncsc1-c1ccc([C@H](C)NC(=O)[C@@H]2C[C@@H](O)CN2C(=O)[C@@H](NC(=O)CCCCCCCCCCNCCCONC(=O)c2ccc(F)c(F)c2Nc2ccc(I)cc2F)C(C)(C)C)cc1`, which Activity [1] is on record?
Its Activity is “inactive”.

What about the “growth inhibition (GI)” value [2] of the same molecule?
Its value is “Dose-dependent effect”.

And the GI50 ([2]; UACC-257, 72 h)?
Its GI50 is 30 to 200 nM.

And the Activity [3]?
The Activity was “inactive”.

And the Activity [4]?
The Activity was “Active”.

What about the Activity [5] of the same molecule?
Its Activity is “Dose-dependent effect”.

What about the IC50 [6] of the same molecule?
The IC50 was 1500 nM.

What about the Activity [7] of the same molecule?
Its Activity is greater than 90%.

What about the Activity [8] of the same molecule?
The Activity was “inactive”.

And the Activity [9]?
Its Activity is “inactive”.

And the Activity [10]?
Its Activity is “Active”.

What about the Activity [11] of the same molecule?
Its Activity is “inactive”.

And the Activity [12]?
The Activity was greater than 90%.

And the Activity [13]?
Its Activity is “inactive”.

What about the Activity [14] of the same molecule?
Its Activity is greater than 80%.

And the DC50 [15]?
Its DC50 is 9.3 nM.

And the Activity [16]?
The Activity was “Dose-dependent effect”.

What about the Activity [17] of the same molecule?
Its Activity is “Dose-dependent effect”.

And the Activity [18]?
Its Activity is greater than 80%.

And the IC50 [19]?
Its IC50 is 590 nM.

What about the concentration at 8 h [20] of the same molecule?
Its concentration at 8 h is 710 nM.

What about the Cmax [21] of the same molecule?
Its Cmax is 1400 nM.

And the Activity [22]?
Its Activity is “Active”.

What about the Activity [23] of the same molecule?
The Activity was “inactive”.

What about the “growth inhibition (GI)” value [24] of the same molecule?
Its value is “Dose-dependent effect”.

What about the GI50 ([24]; COLO 205, 72 h) of the same molecule?
Its GI50 is 30 to 200 nM.

And the Activity [25]?
The Activity was “Active”.

And the Activity [26]?
The Activity was “Dose-dependent effect”.
